According to PubChem BioAssay AID2605 (Johns Hopkins Ion Channel Center, 2010):

Target: Voltage-gated inwardly rectifying potassium channel KCNH2 (Homo sapiens) (UniProt Q12809)
Assay: hERG rescue from dofetilide block, confirmation, manual patch clamp, HEK293 cells (AID 2605)
Conditions: at 10 µM, stronger effect = higher value; for potentiation: measured here: hERG potentiation without dofetilide

Sequence of Voltage-gated inwardly rectifying potassium channel KCNH2 (Homo sapiens) (Q12809 whole entry, looked up): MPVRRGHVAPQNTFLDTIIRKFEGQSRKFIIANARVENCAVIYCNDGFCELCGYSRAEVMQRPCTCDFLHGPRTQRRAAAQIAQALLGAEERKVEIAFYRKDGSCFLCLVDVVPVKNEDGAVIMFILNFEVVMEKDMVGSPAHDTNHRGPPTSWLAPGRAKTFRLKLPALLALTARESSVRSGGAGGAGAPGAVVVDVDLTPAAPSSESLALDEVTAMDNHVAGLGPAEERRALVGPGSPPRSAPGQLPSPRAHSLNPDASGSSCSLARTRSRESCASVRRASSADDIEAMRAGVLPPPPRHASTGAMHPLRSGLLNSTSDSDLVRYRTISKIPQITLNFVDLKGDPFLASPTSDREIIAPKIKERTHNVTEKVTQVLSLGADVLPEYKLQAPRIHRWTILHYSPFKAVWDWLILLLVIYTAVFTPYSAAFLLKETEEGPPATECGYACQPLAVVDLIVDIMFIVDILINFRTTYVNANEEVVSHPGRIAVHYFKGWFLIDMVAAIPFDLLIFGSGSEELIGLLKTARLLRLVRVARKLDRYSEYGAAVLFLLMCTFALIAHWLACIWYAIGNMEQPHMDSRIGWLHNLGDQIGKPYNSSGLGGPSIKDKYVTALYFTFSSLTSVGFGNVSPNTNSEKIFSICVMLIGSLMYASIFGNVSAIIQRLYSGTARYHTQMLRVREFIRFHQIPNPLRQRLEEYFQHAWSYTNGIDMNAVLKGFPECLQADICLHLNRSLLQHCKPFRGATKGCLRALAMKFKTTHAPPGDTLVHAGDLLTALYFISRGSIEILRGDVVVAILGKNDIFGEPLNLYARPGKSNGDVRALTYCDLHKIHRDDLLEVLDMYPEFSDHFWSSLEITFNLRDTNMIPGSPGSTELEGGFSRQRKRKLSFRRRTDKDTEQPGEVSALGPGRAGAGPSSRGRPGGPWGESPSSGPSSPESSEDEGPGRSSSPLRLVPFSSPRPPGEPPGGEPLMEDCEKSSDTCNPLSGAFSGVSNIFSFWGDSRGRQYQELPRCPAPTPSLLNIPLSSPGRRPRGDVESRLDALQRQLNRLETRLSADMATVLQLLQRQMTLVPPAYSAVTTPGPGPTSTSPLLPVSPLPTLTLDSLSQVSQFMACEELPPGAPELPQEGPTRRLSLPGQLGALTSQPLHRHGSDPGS

Structure (SMILES)	current remaining with dofetilide [%]	potentiation [%]
O=C1C2CC=CCC2C(=O)N1c1ccc(Cc2ccncc2)cc1 (stereo not given)	33.8	107
CCC1CCCCN1C(=S)NC(=O)c1cccs1 (stereo not given)	46.5	140
Cc1ccc(NC(=S)c2nc3ccccc3s2)cc1	23.9	107
Cc1cccc(NC(=S)NC(=O)c2cc(-c3ccccc3)nc3ccccc23)c1	32.2	107
O=C(NC(=S)Nc1ccccc1)c1cc(-c2ccccc2)nc2ccccc12	31	119
